The values that follow are results of earlier work, collected in patent US20040266755A1, “Prodrugs of 1-(1-hydroxy-5-isoquinolinesulfonyl) homopiperazine” (Schering Aktiengesellschaft, priority 2003, published 2004).

This series relates to Rho-kinase. To be noted: compared with fasudil; Shimokawa et al. (1999) Cardiovas. Res. 43:1138-1141.

Take `O=S(=O)(c1cccc2c(O)nccc12)N1CCCNCC1` [Hydroxyfasudil, 1-(1-hydroxy-5-isoquinolinesulfonyl) homopiperazine]: the “specificity of inhibitory effect on Rho-kinase” value is reported as “more specific inhibitory effect on Rho-kinase than fasudil”.
